Results published in US11939344B2, “Spirocyclic compounds” (ASTRAZENECA AB, priority 2021, dated 2024).

What was measured:
HCT116 KO-MTAP cells = experiment: PRMT5 cell SDMA assay, MTAP KO cells; type: cell-based; conditions: Homo sapiens, HCT-116; HCT116 MTAP KO, 48 hours; read-out: Cell SDMA IC50 (μM) (MTAP KO)
HCT116 WT cells = experiment: PRMT5 cell SDMA assay, MTAP WT cells; type: cell-based; conditions: Homo sapiens, HCT-116; HCT116 MTAP WT, 48 hours; read-out: Cell SDMA IC50 (μM) (MTAP WT)

| IC50 (HCT116 KO-MTAP cells) | IC50 (HCT116 WT cells) | Compound |
| --- | --- | --- |
| 0.0029 µM | 0.16 µM | Nc1nc2cc(CN3C(=O)c4cc(F)ccc4[C@]34CCN(CC#CC3CC3)C4=O)[nH]c2cc1F [Example 20, (S)-2-((5-Amino-6-fluoro-1H-pyrrolo[3,2-b]pyridin-2-yl)methyl)-1′-(3-cyclopropylprop-2-yn-1-yl)-5-fluorospiro[isoindoline-1,3′-pyrrolidine]-2′,3-dione] |
| 0.086 µM | 3.2 µM | Nc1nc2cc(CN3C(=O)c4c(Cl)cccc4[C@]34CCN(Cc3ccc(F)cc3)C4=O)[nH]c2cc1F [Example 21, (S)-2-((5-Amino-6-fluoro-1H-pyrrolo[3,2-b]pyridin-2-yl)methyl)-4-chloro-1′-(4-fluorobenzyl)spiro[isoindoline-1,3′-pyrrolidine]-2′,3-dione] |
| 0.16 µM | 12 µM | Cc1cc(F)cc2c1[C@]1(CCN(C)C1=O)N(Cc1cc3nc(N)c(F)cc3[nH]1)C2=O [Example 23, (S)-2-((5-Amino-6-fluoro-1H-pyrrolo[3,2-b]pyridin-2-yl)methyl)-5-fluoro-1′,7-dimethylspiro[isoindoline-1,3′-pyrrolidine]-2′,3-dione] |
| 0.032 µM | 1.2 µM | COc1cc(F)cc2c1[C@]1(CCN(C)C1=O)N(Cc1cc3nc(N)c(F)cc3[nH]1)C2=O [Example 24, (S)-2-((5-Amino-6-fluoro-1H-pyrrolo[3,2-b]pyridin-2-yl)methyl)-5-fluoro-7-methoxy-1′-methylspiro[isoindoline-1,3′-pyrrolidine]-2′,3-dione] |

Continued, molecule first:

| Compound | IC50 (HCT116 KO-MTAP cells) | IC50 (HCT116 WT cells) |
| --- | --- | --- |
| Nc1nc2cc(CN3C(=O)c4cc(F)ccc4[C@]34CCN(Cc3ccno3)C4=O)[nH]c2cc1F [Example 13, (S)-2-((5-Amino-6-fluoro-1H-pyrrolo[3,2-b]pyridin-2-yl)methyl)-5-fluoro-1′-(isoxazol-5-ylmethyl)spiro[isoindoline-1,3′-pyrrolidine]-2′,3-dione] | 0.0084 µM | 0.34 µM |
| Nc1nc2cc(CN3C(=O)c4cc(F)ccc4[C@]34CCN(Cc3cc(C(F)(F)F)cnn3)C4=O)[nH]c2cc1F [Example 14, (S)-2-((5-Amino-6-fluoro-1H-pyrrolo[3,2-b]pyridin-2-yl)methyl)-5-fluoro-1′-((5-(trifluoromethyl)pyridazin-3-yl)methyl)spiro[isoindoline-1,3′-pyrrolidine]-2′,3-dione] | 0.006 µM | 0.088 µM |
| Cn1ncc2cc(CN3CC[C@@]4(C3=O)c3ccc(F)cc3C(=O)N4Cc3cc4nc(N)c(F)cc4[nH]3)ccc21 [Example 15, (S)-2-((5-Amino-6-fluoro-1H-pyrrolo[3,2-b]pyridin-2-yl)methyl)-5-fluoro-1′-((1-methyl-1H-indazol-5-yl)methyl)spiro[isoindoline-1,3′-pyrrolidine]-2′,3-dione] | 0.0036 µM | 0.12 µM |
| Nc1nc2cc(CN3C(=O)c4cc(F)ccc4[C@]34CCN(Cc3nc5ccccc5o3)C4=O)[nH]c2cc1F [Example 16, (S)-2-((5-Amino-6-fluoro-1H-pyrrolo[3,2-b]pyridin-2-yl)methyl)-1′-(benzo[d]oxazol-2-ylmethyl)-5-fluorospiro[isoindoline-1,3′-pyrrolidine]-2′,3-dione] | 0.0051 µM | 0.23 µM |
| Nc1nc2cc(CN3C(=O)c4cc(F)ccc4[C@]34CCN(CCOc3ccc(F)cc3)C4=O)[nH]c2cc1F [Example 17, (S)-2-((5-Amino-6-fluoro-1H-pyrrolo[3,2-b]pyridin-2-yl)methyl)-5-fluoro-1′-(2-(4-fluorophenoxy)ethyl)spiro[isoindoline-1,3′-pyrrolidine]-2′,3-dione] | 0.0068 µM | 0.42 µM |
| Cc1ncsc1CCN1CC[C@@]2(C1=O)c1ccc(F)cc1C(=O)N2Cc1cc2nc(N)c(F)cc2[nH]1 [Example 18, (S)-2-((5-Amino-6-fluoro-1H-pyrrolo[3,2-b]pyridin-2-yl)methyl)-5-fluoro-1′-(2-(4-methylthiazol-5-yl)ethyl)spiro[isoindoline-1,3′-pyrrolidine]-2′,3-dione] | 0.0066 µM | 0.37 µM |
